We go through 14 compounds from patent US8546357B2, “Boron-containing small molecules for controlling ectoparasites” (priority 2011, dated 2013).

The structures appear in SMILES notation.

The test system of the assay is Lone star tick larvae (Amblyomma americanum). The assay can be described thus: Larval immersion microassay against larval-stage Lone star ticks. To be noted: for mortality at 300 µM: Amblyomma americanum, 24 h, read-out: activity (percent larval mortality); for In vitro activity at 0.3 mM: larval immersion microassay, 24 hours. The procedure:
The larval immersion microassay was conducted as described in detail in White, et al., J. Med. Entomol. 41: 1034-1042 (2004). Compounds of the invention were formulated in dimethylsulfoxide (DMSO) to prepare a stock solution at a concentration of at least 10 mM. Using 96-well microtiter plates, an aliquot of the mM sample was subsequently diluted in a water-based solution containing 1% ethanol and 0.2% Triton X-100, to obtain the desired concentration (typically 0.3 mM or lower) of compound in a volume of 0.1 ml (minimum n=3 replicates per compound or concentration). Approximately 30-50 Lone star tick larvae (Amblyomma americanum) were submerged into each well containing compounds. After a 30 minute immersion period, larvae were removed with a wide-bore pipette tip in 0.05 ml of fluid, dispensed into a commercial paper tissue biopsy bag which was sealed at the top with a plastic dialysis clip, inverted and allowed to air dry for 60 minutes. Bags containing larvae were then incubated at approximately 27 degrees Celsius and >90% relative humidity. After 24 hours, bags were opened, live and dead larvae were counted and percent larval mortality was calculated.
7 and 8 contain one chiral center each, and are racemic mixtures comprised of approximately 50% R- and 50% S-enantiomer. In vitro and surrogate animal (rat) studies were conducted to evaluate the biological activity of the R- and S-enantiomers of 7 and 8. For the in vitro study, larvae of the Lone star tick (Amblyomma americanum) were exposed to 9, 10, 11 and 12 using the larval immersion microassay at a concentration of no greater than 0.3 mM. Following exposure, larvae were removed, transferred to a tissue biopsy bag and incubated at approximately 27 degrees Celsius and >90% relative humidity. After 24 hours, biopsy bags were opened and the numbers of live and dead larvae were determined

By mortality is commonly meant the percentage killed. For the compound `Cc1cc(C2=NOC(c3cc(Cl)cc(Cl)c3)(C(F)(F)F)C2)ccc1C(=O)NCc1ccc2c(c1)B(O)OC2` (centres unmarked) [Compound 4, 4-(5-(3,5-Dichlorophenyl)-5-(trifluoromethyl)-4,5-dihydroisoxazol-3-yl)-N-((1-hydroxy-1,3-dihydrobenzo[c][1,2]oxaborol-6-yl)methyl)-2-methylbenzamide], the mortality at 300 µM was at least 80%.

In the case of `Cc1cc(C2=NOC(c3cc(Cl)c(Cl)c(Cl)c3)(C(F)(F)F)C2)ccc1C(=O)NCc1ccc2c(c1)B(O)OC2(CF)CF` (centres unmarked) [Compound 17a, N-((3,3-Bis(fluoromethyl)-1-hydroxy-1,3-dihydrobenzo[c][1,2]oxaborol-6-yl)methyl)-2-methyl-4-(5-(3,4,5-trichlorophenyl)-5-(trifluoromethyl)-4,5-dihydroisoxazol-3-yl)benzamide], the mortality at 300 µM is at least 80%.

Regarding `Cc1cc(C2=NOC(c3cc(Cl)c(Cl)c(Cl)c3)(C(F)(F)F)C2)ccc1C(=O)NCCc1ccc2c(c1)B(O)OC2(C)C` (centres unmarked) [Compound 19, N-(2-(1-Hydroxy-3,3-dimethyl-1,3-dihydrobenzo[c][1,2]oxaborol-6-yl)ethyl)-2-methyl-4-(5-(3,4,5-trichlorophenyl)-5-(trifluoromethyl)-4,5-dihydroisoxazol-3-yl)benzamide], the mortality at 300 µM is at least 80%.

Turning to `Cc1cc(C2=NO[C@](c3cc(Cl)c(Cl)c(Cl)c3)(C(F)(F)F)C2)ccc1C(=O)NCc1ccc2c(c1)B(O)OC2(C)C` [Compound 10, (R)—N-((1-hydroxy-3,3-dimethyl-1,3-dihydrobenzo[c][1,2]oxaborol-6-yl)methyl)-2-methyl-4-(5-(3,4,5-trichlorophenyl)-5-(trifluoromethyl)-4,5-dihydroisoxazol-3-yl)benzamide], the “In vitro activity at 0.3 mM” value amounted to 0.0%.

With `Cc1cc(C2=NOC(c3cc(Cl)c(Cl)c(Cl)c3)(C(F)(F)F)C2)ccc1C(=O)NCc1cc(F)c2c(c1)B(O)OC2(C)C` (centres unmarked) [Compound 24, N-((4-fluoro-1-hydroxy-3,3-dimethyl-1,3-dihydrobenzo[c][1,2]oxaborol-6-yl)methyl)-2-methyl-4-(5-(3,4,5-trichlorophenyl)-5-(trifluoromethyl)-4,5-dihydroisoxazol-3-yl)benzamide], the mortality at 300 µM was at least 80%.

On to `Cc1cc(C2=NOC(c3cc(Cl)c(F)c(Cl)c3)(C(F)(F)F)C2)ccc1C(=O)NCCc1ccc2c(c1)B(O)OC2(C)C` (centres unmarked) [Compound 20, 4-(5-(3,5-Dichloro-4-fluorophenyl)-5-(trifluoromethyl)-4,5-dihydroisoxazol-3-yl)-N-(2-(1-hydroxy-3,3-dimethyl-1,3-dihydrobenzo[c][1,2]oxaborol-6-yl)ethyl)-2-methylbenzamide], for which the mortality at 300 µM was at least 80%.

Turning to `Cc1cc(C2=NOC(c3cc(Cl)c(Cl)c(Cl)c3)(C(F)(F)F)C2)ccc1C(=O)NCc1ccc2c(c1)C(C)(C)OB2O` (centres unmarked) [Compound 1, N-((1-Hydroxy-3,3-dimethyl-1,3-dihydrobenzo[c][1,2]oxaborol-5-yl)methyl)-2-methyl-4-(5-(3,4,5-trichlorophenyl)-5-(trifluoromethyl)-4,5-dihydroisoxazol-3-yl)benzamide], the mortality at 300 µM is at least 80%.

On to `Cc1cc(C2=NOC(c3cc(Cl)cc(Cl)c3)(C(F)(F)F)C2)ccc1C(=O)NCc1ccc2c(c1)B(O)OC2(CF)CF` (centres unmarked) [Compound 16, N-((3,3-Bis(fluoromethyl)-1-hydroxy-1,3-dihydrobenzo[c][1,2]oxaborol-6-yl)methyl)-4-(5-(3,5-dichlorophenyl)-5-(trifluoromethyl)-4,5-dihydroisoxazol-3-yl)-2-methylbenzamide], for which the mortality at 300 µM is at least 80%.

Turning to `Cc1cc(C2=NOC(c3cc(Cl)c(Cl)c(Cl)c3)(C(F)(F)F)C2)ccc1C(=O)NCc1ccc2c(c1)B(O)OC21CCCC1` (centres unmarked) [Compound 18, N-((1-Hydroxy-1H-spiro[benzo[c][1,2]oxaborole-3,1′-cyclopentan]-6-yl)methyl)-2-methyl-4-(5-(3,4,5-trichlorophenyl)-5-(trifluoromethyl)-4,5-dihydroisoxazol-3-yl)benzamide], the mortality at 300 µM is at least 80%.

`Cc1cc(C2=NOC(c3cc(Cl)cc(Cl)c3)(C(F)(F)F)C2)ccc1C(=O)NCc1ccc2c(c1)C(C)(C)OB2O` (centres unmarked) [Compound 2, 4-(5-(3,5-Dichlorophenyl)-5-(trifluoromethyl)-4,5-dihydroisoxazol-3-yl)-N-((1-hydroxy-3,3-dimethyl-1,3-dihydrobenzo[c][1,2]oxaborol-5-yl)methyl)-2-methylbenzamide]: the mortality at 300 µM is at least 80%.

Turning to `CCC1(CC)OB(O)c2cc(CNC(=O)c3ccc(C4=NOC(c5cc(Cl)c(F)c(Cl)c5)(C(F)(F)F)C4)cc3C)ccc21` (centres unmarked) [Compound 14, 4-(5-(3,5-Dichloro-4-fluorophenyl)-5-(trifluoromethyl)-4,5-dihydroisoxazol-3-yl)-N-((3,3-diethyl-1-hydroxy-1,3-dihydrobenzo[c][1,2]oxaborol-6-yl)methyl)-2-methylbenzamide], the mortality at 300 µM was at least 80%.

Take `CCC1(CC)OB(O)c2cc(CNC(=O)c3ccc(C4=NOC(c5cc(Cl)cc(Cl)c5)(C(F)(F)F)C4)cc3C)ccc21` (centres unmarked) [Compound 13, 4-(5-(3,5-Dichlorophenyl)-5-(trifluoromethyl)-4,5-dihydroisoxazol-3-yl)-N-((3,3-diethyl-1-hydroxy-1,3-dihydrobenzo[c][1,2]oxaborol-6-yl)methyl)-2-methylbenzamide]: the mortality at 300 µM is at least 80%.

On to `Cc1cc(C2=NO[C@](c3cc(Cl)c(F)c(Cl)c3)(C(F)(F)F)C2)ccc1C(=O)NCc1ccc2c(c1)B(O)OC2(C)C` [Compound 12, (R)-4-(5-(3,5-Dichloro-4-fluorophenyl)-5-(trifluoromethyl)-4,5-dihydroisoxazol-3-yl)-N-((1-hydroxy-3,3-dimethyl-1,3-dihydrobenzo[c][1,2]oxaborol-6-yl)methyl)-2-methylbenzamide], for which the “In vitro activity at 0.3 mM” value worked out at 0.0%.

Regarding `Cc1cc(C2=NOC(c3cc(Cl)c(Cl)c(Cl)c3)(C(F)(F)F)C2)ccc1C(=O)NC(C)c1ccc2c(c1)B(O)OC2(C)C` (centres unmarked) [Compound 22a, N-(1-(1-Hydroxy-3,3-dimethyl-1,3-dihydrobenzo[c][1,2]oxaborol-6-yl)ethyl)-2-methyl-4-(5-(3,4,5-trichlorophenyl)-5-(trifluoromethyl)-4,5-dihydroisoxazol-3-yl)benzamide], the mortality at 300 µM was at least 80%.
